# Earlier results as cited in patent US9125953B2, “Halogenated ether complex” (SAPIOTEC GMBH, priority 2010, dated 2015).
structure (smiles),measurement,value
OC[C@H]1O[C@@H]2O[C@H]3[C@H](O)[C@@H](O)[C@@H](O[C@H]4[C@H](O)[C@@H](O)[C@@H](O[C@H]5[C@H](O)[C@@H](O)[C@@H](O[C@H]6[C@H](O)[C@@H](O)[C@@H](O[C@H]7[C@H](O)[C@@H](O)[C@@H](O[C@H]1[C@H](O)[C@H]2O)O[C@@H]7CO)O[C@@H]6CO)O[C@@H]5CO)O[C@@H]4CO)O[C@@H]3CO [α-cyclodextrin],solubility of unsubstituted α-cyclodextrin in water,14.5 % by weight
